Patent US9175283B2, “Use polysaccharides for promotion of enzymatic activity” (Genzyme Corporation, priority 2006, dated 2015)

Test system: sialidase, β-galactosidase, and β-hexosaminidase
Assay: Promotion of Target Enzyme activity: oligosaccharide modification of column-bound GCR substrate, FACE assay
Format: biochemical
Settings: pH 5.7; for % Modification (FACE Assay): additive at 10%, sialidase 210, β-galactosidase 33, β-hexosaminidase 2500 U/L sv, approx. 24 hours, room temperature; for Promotion of enzymatic activity of the Target Enzymes versus no additive (in words): additive concentrations of Table 9
Excerpt: The FACE assay is a preferred method of monitoring the enzymatic activity of the oligosaccharide/polysaccharide enzymes (such as the Target Enzymes in certain Examples herein) by determining the extent of modification of a substrate (including, but not limited to, a protein, glycoprotein or oligosaccharide) of a Target Enzyme(s). Using a FACE assay, a higher FACE number is indicative of a greater degree of modification and a greater degree of Target Enzyme(s) activity. The FACE assays are known in the art.
In the Examples herein, when the Target Enzymes were sialidase, β-galactosidase, and β-hexosaminidase, a FACE assay was used to determine the percentage of modified oligosaccharide species in the GCR substrate. Specifically, GCR was treated with N-glycanase (approximately 8 U of N-glycanase per 40 μg GCR) to release intact N-linked oligosaccharide chains. The released oligosaccharides were then labeled with the fluorophore: ANTS (8-aminonapthalene-1,3,6-trisulfonic acid and separated on oligosaccharide profiling gel (Glyko®/Prozyme®, San Leandro, Calif.) as per the manufacturers instructions. A dextran reference ladder standard (Glyko®)/Prozyme®, San Leandro, Calif.) was also run on the gel along with reference oligosaccharides, GlcNAc2(+Fuc)Man3 and GlcNAc2(-Fuc)Man3, Glyko®/Prozyme®, San Leandro, Calif.). Bands on the gel were then quantified by scanning the gel for fluorescence using a SE2000 imager system with fluorescence imaging software (Glyko®/Prozyme®, San Leandro, Calif.).
The ratio (%) of the fluorescent intensity of the bands representing two core structures, GlcNAc2(Fuc)Man3 and GlcNAc2Man3 (core structures), to the total intensity of bands with mobility ≦GlcNac2Man3 in a given lane provided the percentage of modified GCR. Since GCR acts as a substrate for the three Target Enzymes, sialidase, β-galactosidase, and β-hexosaminidase, the FACE results correlate to the activity of the Target Enzymes against GCR. For GCR, the FACE values can range from about 0 to about 100%, about 3% to about 90% and about 5% to about 85%.
HES was prepared as a 20% (w/v) stock solution by dissolving solid HES into buffer of the appropriate pH. For this Example, 100 mM sodium citrate, 5 mM calcium chloride, pH 5.7 buffer was used. The 20% […] stock solution was used to make a final concentration of 5% w/L sv HES in the Target Enzyme cocktails. […]
Target Enzyme cocktails containing three Target Enzymes were made by combining sialidase (210 U/L sv), β-galactosidase (33 U/L sv), β-hexosaminidase (2500 U/L sv), and either Hmxl (14 mL/L sv) or HES (5% w/L sv). […] The enzymatic activity of GCR is measured using standard assays (see, e.g., U.S. Pat. No. 6,451,600). […]

SMILES	% Modification (FACE Assay)	Promotion of enzymatic activity of the Target Enzymes versus no additive (in words)
OCC(O)CO [Glycerol, glycerol]	34.2%	showed a diminution of Target Enzyme promotion
CC(O)CO (stereo not shown) [Propylene glycol, propylene glycol]	51.1%	did not show Target Enzyme promotion
